Reference: ChEMBL document CHEMBL4834434, “Discovery of Novel and Potent N-Methyl-d-aspartate Receptor Positive Allosteric Modulators with Antidepressant-like Activity in Rodent Models” (J Med Chem, 2021)
Calls of active or inactive are those of the source. The calls are words filed in the database; no cut-off is given here.

Assays:
[1] = Tmax in ICR mouse at 10 mg/kg, po measured up to 24 hrs by HPLC-MS/MS analysis; format: ADME, organism-based; settings: in vivo
[2] = Cytotoxicity against human HEK293 cells assessed as cell growth inhibition at 60 uM measured after 48 hrs by CCK8 assay relative to control; format: cell-based
[3] = Volume of distribution at steady state in ICR mouse at 3 mg/kg, iv measured up to 24 hrs by HPLC-MS/MS analysis; format: ADME, organism-based; settings: in vivo, read-out: Vdss
Mus musculus [4] = test: Antidepressant activity in ICR mouse aassessed as inhibition of apomorphine-induced climbing behaviour at 10 mg/kg, ip administered prior to APO challenge and measured after 30 mins; format: functional, organism-based
[5] = AUC (0 to t) in ICR mouse at 3 mg/kg, iv measured up to 24 hrs by HPLC-MS/MS analysis; format: ADME, organism-based; design: route intravenous, dose 3 mg/kg, time <=24; settings: in vivo
[6] = Drug concentration in ICR mouse brain at 3 mg/kg, iv measured at 2 hrs; format: ADME, organism-based; settings: read-out: Ct
Mus musculus [7] = test: Antidepressant activity in ICR mouse assessed as decrease in immobility time at 3 to 10 mg/kg, ip measured after 26 mins by forced swim test; format: functional, organism-based; settings: dose 3-10 mg/kg
[8] = Drug concentration in ICR mouse plasma at 10 mg/kg, po measured at 2 hrs by LC-MS/MS analysis; format: ADME, organism-based
[9] = Brain to blood partition coefficient of the compound; format: physicochemical, tissue-based; settings: read-out: logBB (converted)
[10] = […] in ICR mouse assessed as change in behaviour at 30 mg/kg, po administered for 28 days; format: organism-based; settings: in vivo, 672 h, time 28 day
[11] = Drug concentration in ICR mouse plasma at 10 mg/kg, po measured at 0.5 hrs by LC-MS/MS analysis; format: ADME, organism-based
[12] = Drug concentration in ICR mouse plasma at 3 mg/kg, iv measured at 2 hrs; format: ADME, organism-based
L929 = test: Cytotoxicity against mouse L929 cells assessed as cell growth inhibition measured after 48 hrs by CCK8 assay; format: cell-based; settings: L929, 48 h
[13] = Half life in ICR mouse at 10 mg/kg, po measured up to 24 hrs by HPLC-MS/MS analysis; format: ADME, organism-based; settings: in vivo
[14] = MRT in ICR mouse at 3 mg/kg, iv measured up to 24 hrs by HPLC-MS/MS analysis; format: ADME, organism-based; settings: in vivo
[15] = Cytotoxicity against human HEK293 cells assessed as cell growth inhibition at 120 uM measured after 48 hrs by CCK8 assay relative to control; format: cell-based
[16] = Ratio of drug concentration in brain to plasma in ICR mouse at 10 mg/kg, po measured at 0.5 hrs by LC-MS/MS analysis; format: ADME, organism-based; settings: read-out: BPR
[17] = Acute toxicity in ip dosed ICR mouse assessed as lethal dose measured after 24 hrs; format: organism-based; settings: in vivo
Mus musculus [18] = test: Antidepressant activity in ICR mouse assessed as decrease in immobility time at 30 mg/kg, ip measured after 26 mins by forced swim test; format: functional, organism-based
hERG (KCNH2) [19] = biological target: T1, hERG (KCNH2) (Homo sapiens, UniProt Q12809); test: Inhibition of human ERG expressed in CHO cells at 100 uM with holding potential at -80 to -60 mV for 500s followed by raise in potential at +30 mV for 2 sec and subsequent repolarization to -60 mV for 2 sec by whole-cell patch clamp method relative to control; format: cell-based; settings: CHO cells expressing human ERG
[20] = Drug concentration in ICR mouse brain at 3 mg/kg, iv measured at 0.5 hrs by LC-MS/MS analysis; format: ADME, organism-based; settings: read-out: Ct
[21] = Drug concentration in ICR mouse brain at 10 mg/kg, po measured at 0.5 hrs by LC-MS/MS analysis; format: ADME, organism-based; settings: read-out: Ct
[22] = Ratio of drug concentration in brain to plasma in ICR mouse at 3 mg/kg, iv measured at 2 hrs by LC-MS/MS analysis; format: ADME, organism-based; settings: read-out: BPR
[23] = MRT in ICR mouse at 10 mg/kg, po measured up to 24 hrs by HPLC-MS/MS analysis; format: ADME, organism-based; settings: in vivo
[24] = Effect on locomotor activity in ICR mouse assessed as hyperlocomotion at 10 mg/kg, ip measured after 90 mins; format: ADME, organism-based; settings: in vivo, 1.5 h
[25] = Cytotoxicity against African green monkey Vero cells assessed as cell growth inhibition at 60 uM measured after 48 hrs by CCK8 assay relative to control; format: cell-based; settings: chlorocebus sabaeus
[26] = Clearance in ICR mouse at 3 mg/kg, iv measured up to 24 hrs by HPLC-MS/MS analysis; format: ADME, organism-based; settings: in vivo
[27] = Cytotoxicity against African green monkey Vero cells assessed as cell growth inhibition at 120 uM measured after 48 hrs by CCK8 assay relative to control; format: cell-based; settings: chlorocebus sabaeus
[28] = Cmax in ICR mouse at 10 mg/kg, po measured up to 24 hrs by HPLC-MS/MS analysis; format: ADME, organism-based; design: route oral, dose 10 mg/kg, time <=24; settings: in vivo
[29] = Effect on locomotor activity in ICR mouse assessed as hypolocomotion at 10 mg/kg, ip measured after 90 mins; format: ADME, organism-based; settings: in vivo, 1.5 h
HEK293 = test: Cytotoxicity against human HEK293 cells assessed as cell growth inhibition measured after 48 hrs by CCK8 assay; format: cell-based; settings: HEK293, 48 h
Glutamate NMDA receptor = test: Positive allosteric modulation of C57BL/6 mouse NMDA receptor assessed as potentiation of NMDA-induced current in presence of saturating glutamate by patch-clamp method; format: tissue-based, Brain
hERG (KCNH2) [30] = biological target: T1, hERG (KCNH2); test: Inhibition of human ERG expressed in CHO cells at 30 uM with holding potential at -80 to -60 mV for 500s followed by raise in potential at +30 mV for 2 sec and subsequent repolarization to -60 mV for 2 sec by whole-cell patch clamp method relative to control; format: cell-based; settings: CHO cells expressing human ERG
[31] = Oral bioavailability in ICR mouse at 10 mg/kg measured up to 24 hrs by HPLC-MS/MS analysis; format: ADME, organism-based; settings: in vivo
[32] = Ratio of drug concentration in brain to plasma in ICR mouse at 10 mg/kg, po measured at 2 hrs by LC-MS/MS analysis; format: ADME, organism-based; settings: read-out: BPR
[33] = […] in ICR mouse assessed as decrease in body weight at 30 mg/kg, po administered for 28 days; format: organism-based; settings: in vivo, 672 h, time 28 day
[34] = AUC (0 to t) in ICR mouse at 10 mg/kg, po measured up to 24 hrs by HPLC-MS/MS analysis; format: ADME, organism-based; design: route oral, dose 10 mg/kg, time <=24; settings: in vivo
[35] = […] in ICR mouse assessed as body weight gain at 30 mg/kg, po administered for 28 days; format: organism-based; settings: in vivo, 672 h, time 28 day
Vero = test: Cytotoxicity against African green monkey Vero cells assessed as cell growth inhibition measured after 48 hrs by CCK8 assay; format: cell-based; settings: Chlorocebus sabaeus
[36] = Ratio of drug concentration in brain to plasma in ICR mouse at 3 mg/kg, iv measured at 0.5 hrs by LC-MS/MS analysis; format: ADME, organism-based; settings: read-out: BPR
[37] = Cytotoxicity against mouse L929 cells assessed as cell growth inhibition at 120 uM measured after 48 hrs by CCK8 assay relative to control; format: cell-based
[38] = Cytotoxicity against mouse L929 cells assessed as cell growth inhibition at 60 uM measured after 48 hrs by CCK8 assay relative to control; format: cell-based
[39] = Drug concentration in ICR mouse brain at 10 mg/kg, po measured at 2 hrs by LC-MS/MS analysis; format: ADME, organism-based; settings: read-out: Ct
[40] = Half life in ICR mouse at 3 mg/kg, iv measured up to 24 hrs by HPLC-MS/MS analysis; format: ADME, organism-based; settings: in vivo
[41] = Drug concentration in ICR mouse plasma at 3 mg/kg, iv measured at 0.5 hrs by LC-MS/MS analysis; format: ADME, organism-based

T1 sequence (Q12809 whole entry): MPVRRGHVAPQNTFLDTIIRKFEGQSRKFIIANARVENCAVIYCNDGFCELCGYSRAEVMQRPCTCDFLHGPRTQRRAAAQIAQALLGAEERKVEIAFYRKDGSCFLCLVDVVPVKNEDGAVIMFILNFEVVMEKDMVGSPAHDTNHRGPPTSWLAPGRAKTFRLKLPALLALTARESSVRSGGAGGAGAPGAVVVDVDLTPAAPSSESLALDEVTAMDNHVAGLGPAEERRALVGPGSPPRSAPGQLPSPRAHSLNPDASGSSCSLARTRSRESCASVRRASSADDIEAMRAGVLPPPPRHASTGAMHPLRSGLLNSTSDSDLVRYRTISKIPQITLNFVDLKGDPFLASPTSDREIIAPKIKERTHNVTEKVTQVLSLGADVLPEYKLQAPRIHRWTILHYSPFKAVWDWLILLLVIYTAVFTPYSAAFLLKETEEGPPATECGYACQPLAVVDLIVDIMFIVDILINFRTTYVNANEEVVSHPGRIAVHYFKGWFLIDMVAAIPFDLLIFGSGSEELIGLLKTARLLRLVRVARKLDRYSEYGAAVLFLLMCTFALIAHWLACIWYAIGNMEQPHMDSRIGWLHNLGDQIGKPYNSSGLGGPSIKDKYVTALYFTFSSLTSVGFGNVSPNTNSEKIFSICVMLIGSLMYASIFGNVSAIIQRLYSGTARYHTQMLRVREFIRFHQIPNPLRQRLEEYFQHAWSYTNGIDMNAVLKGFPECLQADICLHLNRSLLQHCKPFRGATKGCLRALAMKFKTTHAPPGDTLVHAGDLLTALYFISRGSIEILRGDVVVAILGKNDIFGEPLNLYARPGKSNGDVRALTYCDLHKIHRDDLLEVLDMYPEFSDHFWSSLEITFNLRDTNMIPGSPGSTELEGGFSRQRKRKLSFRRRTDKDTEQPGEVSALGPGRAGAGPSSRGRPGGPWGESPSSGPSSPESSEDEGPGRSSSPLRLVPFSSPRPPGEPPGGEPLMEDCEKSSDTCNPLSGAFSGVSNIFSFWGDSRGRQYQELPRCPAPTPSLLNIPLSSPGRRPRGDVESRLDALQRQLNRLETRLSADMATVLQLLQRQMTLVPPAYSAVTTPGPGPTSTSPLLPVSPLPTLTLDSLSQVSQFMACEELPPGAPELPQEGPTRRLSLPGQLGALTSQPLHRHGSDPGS

## O=C(Nc1cc(Cl)cc(Cl)c1)c1ccc(Cn2nc(C(F)(F)F)cc2C(F)(F)F)o1
[1]
  Tmax: 2 h
[2]
  inhibition at 48 h, 60 µM: 42%
[3]
  Vd: 12.7 L/kg
Mus musculus [4]
  Activity: inactive
[5]
  AUC(0-t) at 24 h: 1750 ng·h/mL
[6]
  concentration at 2 h: 49 ng/mL
Mus musculus [7]
  Activity: Active
[8]
  concentration at 2 h: 989 ng/mL
[9]
  Kp: 3.98
[10]
  Activity: Non-Toxic
[11]
  concentration at 0.5 h: 580 ng/mL
[12]
  concentration at 2 h: 304 ng/mL
L929
  IC50: 29.7 µM
[13]
  half-life: 5.7 h
[14]
  MRT: 3.4 h
[15]
  inhibition at 48 h, 120 µM: 73.6%
[16]
  Kp at 0.5 h: 0.16
[17]
  LD50 at 24 h: 1500 mg/kg
Mus musculus [18]
  Activity: Active
hERG (KCNH2) [19]
  inhibition at 2 s, 100 µM: 68.4%
[20]
  concentration at 0.5 h: 73.9 ng/mL
[21]
  concentration at 0.5 h: 93.4 ng/mL
[22]
  Kp at 2 h: 0.16
[23]
  MRT: 4.7 h
[24]
  Activity: Non-Toxic
[25]
  inhibition at 48 h, 60 µM: 96.2%
[26]
  clearance: 30 mL/min/kg
[27]
  inhibition at 48 h, 120 µM: 95.8%
[28]
  Cmax: 989 ng/mL
[29]
  Activity: Non-Toxic
HEK293
  IC50: 84.8 µM
Glutamate NMDA receptor
  EC50: 12.5 µM
hERG (KCNH2) [30]
  inhibition at 2 s, 30 µM: 49.1%
[31]
  bioavailability: 72.2%
[32]
  Kp at 2 h: 0.15
[33]
  Activity: Toxic
[34]
  AUC(0-t) at 24 h: 4220 ng·h/mL
[35]
  Activity: Non-Toxic
Vero
  IC50: 23.2 µM
[36]
  Kp at 0.5 h: 0.14
[37]
  inhibition at 48 h, 120 µM: 90.6%
[38]
  inhibition at 48 h, 60 µM: 84.3%
[39]
  concentration at 2 h: 148 ng/mL
[40]
  half-life: 5 h
[41]
  concentration at 0.5 h: 506 ng/mL
